Measured values reported in patent publication US9931410B2, “Nanoparticles for targeted delivery of multiple therapeutic agents and methods of use” (priority 2012, dated 2018).

What was measured:
[1] = Drug loading and encapsulation efficiency (AAS for platinum, spectrophotometry for irinotecan); format: physicochemical
Procedure: Particle sizing was performed using dynamic light scattering (DLS) with a Zetasizer Nano ZS instrument (Malvern Instruments Ltd., U.K.). For each measurement, 100 μL or more of the sample was loaded in a disposable low-volume cuvette. Transmission electron microscopy (TEM) experiments were carried out on a JEOL 2011 instrument at an acceleration voltage of 200 kV. The TEM sample was prepared by depositing 10 μL of the nanoparticle suspension (1.0 mg/mL) onto a 300-mesh carbon-coated copper grid. Samples were blotted away after 30 minutes incubation and the grids were negatively stained for 20 minutes at room temperature with a sterile-filtered 1% (w/v) uranyl acetate aqueous solution. Drug loading and encapsulation efficiency (EE) were determined by quantifying the amount of drug in the nanoparticles. Drug loading is defined as the mass fraction of the drug in the nanoparticles, whereas EE is the fraction of initial drug that is encapsulated by the nanoparticles. After synthesis, nanoparticles were dissolved in a solution 50/50 acetonitrile/water and vortexed for several hours to induce nanoparticle dissociation. The amount of platinum inside the nanoparticles was detected using Atomic Absorption Spectroscopy (AAS), from which the load of cisplatin was calculated. Irinotecan was detected using spectrophotometry on a TECAN 1000 plate reader at a wavelength of 385 nm. A calibration curve with known concentrations of irinotecan was prepared, and the amount of irinotecan encapsulated in the nanoparticles was calculated using the calibration curve.

[2] = Drug release from nanoparticles over time in phosphate buffered saline; format: physicochemical; settings: PLGA-PEG-LIG nanoparticles, irinotecan to cisplatin ratio 2:1, phosphate buffered saline
Procedure: FIG. 8 is a graph showing the percent of irinotecan and platinum release from PLGA-PEG-LIG nanoparticles over time in phosphate buffered saline.
Next, the amount of cisplatin and irinotecan encapsulated in the nanoparticles as well their encapsulation efficiency (EE) was determined (FIG. 7). As expected, cisplatin was encapsulated with very high efficiency (>80%) due to the hydrophobic-hydrophobic interaction PLGA and PLA. […] This might be due to hydrophilic-hydrophilic interactions of the platinum prodrug and irinotecan. […] The percent drug release of irinotecan and platinum of these nanoparticles over time was also assessed. Irinotecan was released from these nanoparticles at a faster rate compared to the release of the Pt-containing chemotherapeutic agent (FIG. 8).

[3] = after self-assembly with PLGA-PEG
[4] = mixed with both PLGA-PEG and PLA-cisplatin

SMILES	drug loading of irinotecan [1, 3]	encapsulation efficiency (EE) of irinotecan [1, 3]	drug loading of irinotecan [1, 4]	encapsulation efficiency (EE) of irinotecan [1, 4]	rate of drug release from nanoparticles compared to the Pt-containing agent [2]	encapsulation efficiency of cisplatin ([1]; cisplatin as PLA-cisplatin in nanoparticles)
CCc1c2c(nc3ccc(OC(=O)N4CCC(N5CCCCC5)CC4)cc13)-c1cc3c(c(=O)n1C2)COC(=O)[C@]3(O)CC [Irinotecan, irinotecan]	0.5%	10%	2.2%	44%	faster rate	–
N.N.[Cl][Pt][Cl] [cisplatin]	–	–	–	–	–	> 80%
